Measurements as given in ChEMBL document CHEMBL4680222, “Sensitive fluorogenic substrates for sirtuin deacylase inhibitor discovery” (Eur J Med Chem, 2020).
Where a SMILES comes first, the peptide text is derived from it. The star is where a group is joined. AMC = Cc1cc(=O)oc2cc(N*)ccc12; Decanoyl = CCCCCCCCCC(=O)*

How the values were obtained:
[1] = target: T1, NAD-dependent protein deacetylase sirtuin-2 (Homo sapiens) (UniProt Q8IXJ6); assay: Substrate activity at human N-terminal His-tagged SIRT2 (56 to 356 residues) expressed in Escherichia coli at 0.5 uM measured after 2 hrs in presence of NAD+ and trypsin by fluorescence assay
T1 sequence (whole entry): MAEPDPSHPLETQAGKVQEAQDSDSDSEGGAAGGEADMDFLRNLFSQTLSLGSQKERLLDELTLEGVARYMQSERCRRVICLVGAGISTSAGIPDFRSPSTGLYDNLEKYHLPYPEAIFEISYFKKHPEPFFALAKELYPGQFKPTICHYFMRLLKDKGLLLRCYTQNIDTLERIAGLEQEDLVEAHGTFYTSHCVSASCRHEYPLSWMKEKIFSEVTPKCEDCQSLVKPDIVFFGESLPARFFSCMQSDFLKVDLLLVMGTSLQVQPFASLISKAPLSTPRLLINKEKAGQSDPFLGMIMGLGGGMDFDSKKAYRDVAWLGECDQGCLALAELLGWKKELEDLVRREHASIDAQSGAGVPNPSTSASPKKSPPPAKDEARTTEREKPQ

[2] = target: NAD-dependent protein deacylase sirtuin-6 (Homo sapiens) (UniProt Q8N6T7); assay: Substrate activity at human N-terminal His-tagged SIRT6 (1 to 355 residues) expressed in Escherichia coli at 0.5 uM measured after 2 hrs in presence of NAD+ and trypsin by fluorescence assay
[3] = target: T1, NAD-dependent protein deacetylase sirtuin-2 (Homo sapiens); assay: Substrate activity at human N-terminal His-tagged SIRT2 (56 to 356 residues) expressed in Escherichia coli at 50 uM measured after 2 hrs in presence of NAD+ and trypsin by fluorescence assay
[4] = target: T2, NAD-dependent protein deacetylase sirtuin-3, mitochondrial (Homo sapiens) (UniProt Q9NTG7); assay: Substrate activity at human N-terminal His-tagged SIRT3 (122 to 391 residues) expressed in Escherichia coli at 5 uM measured after 2 hrs in presence of NAD+ and trypsin by fluorescence assay
T2 sequence (whole entry): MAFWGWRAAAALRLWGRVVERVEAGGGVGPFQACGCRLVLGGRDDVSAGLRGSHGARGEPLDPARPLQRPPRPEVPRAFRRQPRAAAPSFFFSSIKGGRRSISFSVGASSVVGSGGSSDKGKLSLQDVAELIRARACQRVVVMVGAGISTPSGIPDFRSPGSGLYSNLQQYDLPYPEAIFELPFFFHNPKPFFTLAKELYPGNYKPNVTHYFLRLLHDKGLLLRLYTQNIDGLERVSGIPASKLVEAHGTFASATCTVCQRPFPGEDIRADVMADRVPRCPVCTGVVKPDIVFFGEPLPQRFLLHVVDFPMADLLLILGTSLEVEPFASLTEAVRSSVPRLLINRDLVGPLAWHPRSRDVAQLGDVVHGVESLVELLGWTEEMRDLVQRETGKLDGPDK

[5] = target: T3, NAD-dependent protein deacetylase sirtuin-7 (Homo sapiens) (UniProt Q9NRC8); assay: Substrate activity at human N-terminal His-tagged SIRT7 (68 to 354 residues) expressed in Escherichia coli at 50 uM measured after 2 hrs in presence of NAD+ and trypsin by fluorescence assay
T3 sequence (whole entry): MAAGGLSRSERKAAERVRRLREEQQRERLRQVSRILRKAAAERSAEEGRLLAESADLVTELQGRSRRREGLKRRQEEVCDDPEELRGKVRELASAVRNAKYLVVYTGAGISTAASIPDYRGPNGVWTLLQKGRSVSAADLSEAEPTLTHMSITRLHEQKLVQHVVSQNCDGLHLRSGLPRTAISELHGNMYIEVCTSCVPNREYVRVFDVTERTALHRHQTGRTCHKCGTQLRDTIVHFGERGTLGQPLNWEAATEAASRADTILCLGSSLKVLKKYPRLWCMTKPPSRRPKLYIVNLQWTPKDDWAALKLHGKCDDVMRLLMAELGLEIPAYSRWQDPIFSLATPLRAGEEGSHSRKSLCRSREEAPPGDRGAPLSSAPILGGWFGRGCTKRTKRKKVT

[6] = target: T1, NAD-dependent protein deacetylase sirtuin-2 (Homo sapiens); assay: Substrate activity at human N-terminal His-tagged SIRT2 (56 to 356 residues) expressed in Escherichia coli at 5 uM measured after 2 hrs in presence of NAD+ and trypsin by fluorescence assay
[7] = target: T3, NAD-dependent protein deacetylase sirtuin-7 (Homo sapiens); assay: Substrate activity at human N-terminal His-tagged SIRT7 (68 to 354 residues) expressed in Escherichia coli at 5 uM measured after 2 hrs in presence of NAD+ and trypsin by fluorescence assay
[8] = target: NAD-dependent protein deacylase sirtuin-5, mitochondrial (Homo sapiens) (UniProt Q9NXA8); assay: Substrate activity at human N-terminal His-tagged SIRT5 (34 to 302 residues) expressed in Escherichia coli at 0.5 uM measured after 2 hrs in presence of NAD+ and trypsin by fluorescence assay
[9] = target: T2, NAD-dependent protein deacetylase sirtuin-3, mitochondrial (Homo sapiens); assay: Substrate activity at human N-terminal His-tagged SIRT3 (122 to 391 residues) expressed in Escherichia coli at 50 uM measured after 2 hrs in presence of NAD+ and trypsin by fluorescence assay
[10] = target: T3, NAD-dependent protein deacetylase sirtuin-7 (Homo sapiens); assay: Substrate activity at human N-terminal His-tagged SIRT7 (68 to 354 residues) expressed in Escherichia coli at 0.5 uM measured after 2 hrs in presence of NAD+ and trypsin by fluorescence assay
[11] = target: NAD-dependent protein deacylase sirtuin-5, mitochondrial (Homo sapiens) (UniProt Q9NXA8); assay: Substrate activity at human N-terminal His-tagged SIRT5 (34 to 302 residues) expressed in Escherichia coli at 5 uM measured after 2 hrs in presence of NAD+ and trypsin by fluorescence assay
[12] = target: T4, NAD-dependent protein deacetylase sirtuin-1 (Homo sapiens) (UniProt Q96EB6); assay: Substrate activity at human N-terminal His-tagged SIRT1 (183 to 664 residues) expressed in Escherichia coli at 50 uM measured after 2 hrs in presence of NAD+ and trypsin by fluorescence assay
T4 sequence (whole entry): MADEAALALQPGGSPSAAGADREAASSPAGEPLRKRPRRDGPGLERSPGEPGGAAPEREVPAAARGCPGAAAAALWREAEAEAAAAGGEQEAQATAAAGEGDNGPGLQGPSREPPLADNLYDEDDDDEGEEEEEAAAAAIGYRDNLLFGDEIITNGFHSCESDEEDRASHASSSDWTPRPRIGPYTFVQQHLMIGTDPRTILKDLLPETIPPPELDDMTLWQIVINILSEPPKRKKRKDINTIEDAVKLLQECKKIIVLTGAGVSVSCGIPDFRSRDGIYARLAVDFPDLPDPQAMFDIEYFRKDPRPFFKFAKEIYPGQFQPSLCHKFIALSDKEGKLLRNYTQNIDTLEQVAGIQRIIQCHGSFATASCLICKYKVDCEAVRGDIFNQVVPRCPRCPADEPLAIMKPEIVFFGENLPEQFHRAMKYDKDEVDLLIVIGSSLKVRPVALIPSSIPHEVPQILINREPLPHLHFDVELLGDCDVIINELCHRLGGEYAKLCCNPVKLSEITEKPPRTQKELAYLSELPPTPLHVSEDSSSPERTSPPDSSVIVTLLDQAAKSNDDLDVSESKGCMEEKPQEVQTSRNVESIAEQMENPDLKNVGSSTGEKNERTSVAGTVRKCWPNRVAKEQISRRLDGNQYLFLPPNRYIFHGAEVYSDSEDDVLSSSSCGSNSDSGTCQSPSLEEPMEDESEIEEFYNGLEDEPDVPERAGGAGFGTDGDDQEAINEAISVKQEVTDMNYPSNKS

[13] = target: NAD-dependent protein deacylase sirtuin-5, mitochondrial (Homo sapiens) (UniProt Q9NXA8); assay: Substrate activity at human N-terminal His-tagged SIRT5 (34 to 302 residues) expressed in Escherichia coli at 50 uM measured after 2 hrs in presence of NAD+ and trypsin by fluorescence assay
[14] = target: NAD-dependent protein deacylase sirtuin-6 (Homo sapiens) (UniProt Q8N6T7); assay: Substrate activity at human N-terminal His-tagged SIRT6 (1 to 355 residues) expressed in Escherichia coli at 5 uM measured after 2 hrs in presence of NAD+ and trypsin by fluorescence assay
[15] = target: T4, NAD-dependent protein deacetylase sirtuin-1 (Homo sapiens); assay: Substrate activity at human N-terminal His-tagged SIRT1 (183 to 664 residues) expressed in Escherichia coli at 0.5 uM measured after 2 hrs in presence of NAD+ and trypsin by fluorescence assay
[16] = target: NAD-dependent protein deacylase sirtuin-6 (Homo sapiens) (UniProt Q8N6T7); assay: Substrate activity at human N-terminal His-tagged SIRT6 (1 to 355 residues) expressed in Escherichia coli at 50 uM measured after 2 hrs in presence of NAD+ and trypsin by fluorescence assay
[17] = target: T2, NAD-dependent protein deacetylase sirtuin-3, mitochondrial (Homo sapiens); assay: Substrate activity at human N-terminal His-tagged SIRT3 (122 to 391 residues) expressed in Escherichia coli at 0.5 uM measured after 2 hrs in presence of NAD+ and trypsin by fluorescence assay
[18] = target: T4, NAD-dependent protein deacetylase sirtuin-1 (Homo sapiens); assay: Substrate activity at human N-terminal His-tagged SIRT1 (183 to 664 residues) expressed in Escherichia coli at 5 uM measured after 2 hrs in presence of NAD+ and trypsin by fluorescence assay

NAD-dependent protein deacylase sirtuin-6 (Homo sapiens), sequence (Q8N6T7 whole entry, the tested form may be a part): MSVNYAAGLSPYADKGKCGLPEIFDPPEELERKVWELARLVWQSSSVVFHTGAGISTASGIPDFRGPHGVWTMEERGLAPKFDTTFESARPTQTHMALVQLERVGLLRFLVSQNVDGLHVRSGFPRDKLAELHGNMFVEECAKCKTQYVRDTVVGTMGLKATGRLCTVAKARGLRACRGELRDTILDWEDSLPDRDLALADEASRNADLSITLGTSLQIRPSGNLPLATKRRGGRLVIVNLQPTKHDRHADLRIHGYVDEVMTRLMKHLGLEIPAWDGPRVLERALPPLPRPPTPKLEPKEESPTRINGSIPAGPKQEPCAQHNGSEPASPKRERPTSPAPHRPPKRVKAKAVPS
NAD-dependent protein deacylase sirtuin-5, mitochondrial (Homo sapiens), sequence (Q9NXA8 37-310 limits assumed): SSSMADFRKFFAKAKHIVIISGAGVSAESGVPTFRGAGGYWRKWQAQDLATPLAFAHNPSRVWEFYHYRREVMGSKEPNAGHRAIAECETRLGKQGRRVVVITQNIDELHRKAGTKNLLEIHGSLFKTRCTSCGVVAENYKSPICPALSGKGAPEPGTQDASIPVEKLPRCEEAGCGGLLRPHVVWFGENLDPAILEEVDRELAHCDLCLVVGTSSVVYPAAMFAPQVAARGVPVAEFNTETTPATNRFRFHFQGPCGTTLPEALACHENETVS

| SMILES | Activity [1] [RFU] | Activity [2] [RFU] | Activity [3] [RFU] | Activity [4] [RFU] | Activity [5] [RFU] | Activity [6] [RFU] | Activity [7] [RFU] | Activity [8] [RFU] | Activity [9] [RFU] | Activity [10] [RFU] | Activity [11] [RFU] | Activity [12] [RFU] | Activity [13] [RFU] | Activity [14] [RFU] | Activity [15] [RFU] | Activity [16] [RFU] | Activity [17] [RFU] | Activity [18] [RFU] |
| --- | --- | --- | --- | --- | --- | --- | --- | --- | --- | --- | --- | --- | --- | --- | --- | --- | --- | --- |
| CC(=O)NCCCC[C@H](NC(=O)[C@H](CCCCN)NC(=O)[C@H](Cc1cnc[nH]1)NC(=O)[C@H](CCCNC(=N)N)NC(C)=O)C(=O)Nc1ccc2c(C)cc(=O)oc2c1 (Ac-RHKK(Ac)-{AMC}) | 0.37 | 0.5 | 2.64 | 0.38 | 0.43 | 0.73 | 0.33 | 0.37 | 1.61 | 0.39 | 0.3 | 5.22 | 0.61 | 0.38 | 0.37 | 0.43 | 0.28 | 1.13 |
| CC[C@H](C)[C@H](NC(=O)[C@H](CC(C)C)NC(=O)[C@H](CCCNC(=N)N)NC(C)=O)C(=O)N[C@@H](CCCCNC(C)=O)C(=O)Nc1ccc2c(C)cc(=O)oc2c1 (Ac-RLIK(Ac)-{AMC}) | 0.66 | 0.45 | 32.5 | 14.2 | 0.71 | 4.96 | 3.2 | 0.22 | 28.2 | 0.27 | 0.27 | 24.1 | 0.98 | 0.32 | 0.66 | 0.71 | 2.66 | 18.3 |
| CC(=O)NCCCC[C@H](NC(=O)[C@H](CCCNC(=N)N)NC(=O)[C@H](C)NC(=O)[C@@H](NC(C)=O)[C@@H](C)O)C(=O)Nc1ccc2c(C)cc(=O)oc2c1 (Ac-TARK(Ac)-{AMC}) | 0.2 | 0.35 | 0.48 | 0.38 | 0.43 | 0.22 | 0.28 | 0.26 | 0.88 | 0.39 | 0.27 | 0.97 | 0.7 | 0.34 | 0.2 | 0.43 | 0.31 | 0.33 |
| CCCCCCCCCC(=O)NCCCC[C@H](NC(=O)[C@H](CCCNC(=N)N)NC(=O)[C@H](C)NC(=O)[C@@H](NC(C)=O)[C@@H](C)O)C(=O)Nc1ccc2c(C)cc(=O)oc2c1 (Ac-TARK(Decanoyl)-{AMC}) | 0.25 | 0.48 | 1.94 | 0.4 | 0.79 | 0.65 | 0.35 | 0.26 | 1.08 | 0.35 | 0.28 | 1.43 | 1.38 | 0.38 | 0.25 | 0.79 | 0.26 | 0.46 |
| CC(=O)NCCCC[C@H](NC(=O)[C@H](CC(C)C)NC(=O)[C@H](CCCCN)NC(=O)[C@H](Cc1ccc(O)cc1)NC(C)=O)C(=O)Nc1ccc2c(C)cc(=O)oc2c1 (Ac-YKLK(Ac)-{AMC}) | 0.52 | 0.5 | 25.2 | 2.28 | 0.97 | 3.84 | 1.09 | 0.24 | 9.82 | 0.31 | 0.31 | 33 | 1.29 | 0.39 | 0.52 | 0.97 | 0.54 | 6.39 |
